Measured values published in article PMC9409646 (Marine Drugs, 2022).

Test system: hα3β4 nAChRs
Type: cell-based, human

For “Czon1107-F9A: Ala-scan analogue of Czon1107 (GFRSPCPPAC)”, the “activity at hα3β4 nAChRs compared with wild-type Czon1107 (in words)” value was “slight potency decrease”.
“Czon1107-G1R: Arg-scan analogue of Czon1107 (RFRSPCPPFC)” was tested, and the “inhibition of ACh-evoked current amplitude” value was ~ 50%.
In the case of “Czon1107-P5R: Arg-scan analogue of Czon1107 (GFRSRCPPFC)”, the “activity at hα3β4 nAChRs compared with wild-type Czon1107 (in words)” value is reported as “No significant change in activity”.
“Czon1107-P7R: Arg-scan analogue of Czon1107 (GFRSPCRPFC)” was tested, and the “inhibition of ACh-evoked current amplitude” value was ~ 50%.
With “Czon1107-P8R: Arg-scan analogue of Czon1107 (GFRSPCPRFC)” the “activity at hα3β4 nAChRs compared with wild-type Czon1107 (in words)” value was “No significant change in activity”.
